Patent US6503449B1, “Process for the control of microbial contamination in water-based solids suspensions” (Ciba Specialty Chemicals Corporation, priority 1998, dated 2003)

Test system: mixture of Gram positive and Gram negative bacteria
Experiment: Sonication of Pigment Red 23 dispersion of Example 2 with biocide, bacterial contamination check
Type: cell-based
Parameters: key: −: no bacterial colonies detected; +: light contamination (10^0 and 10^3 cfu/ml); ++: moderate contamination(10^3-10^5 cfu/ml); +++: heavy contamination(>10^5 cfu/ml)
Excerpt: A mixture of Pigment Red 23, available from Ciba Specialty Chemicals(UK) Ltd., 215.5 parts, Emulan OG (RTM) (35% solution in water), available from BASF, 153.7 parts, tributyl phosphate, available from Albright & Wilson, 2 parts, and water, 128.8 parts, are dispersed by re-circulation through a Bachofen KDL200 bead-mill until colouristic properties are within specification of UNISPERSE (RTM) Red RBS-PI, available from Ciba Specialty Chemicals(UK) Ltd., and adjusted to pH 8.0-8.5 with 20% sodium hydroxide solution. This material is identified as containing the Gram negative bacterium, Pseudomonas putida. 50 millilitre aliquots of this dispersion containing levels of glutaraldehyde (pentane-1,5-dialdehyde), available as the trade product Protectol GDA form BASF or Ucarcide from Union Carbide, between 0 parts per million (ppm) and 2000 ppm are sonicated using a Branson MSE sonicator with a 19 mm horn probe resonating at 20 kHz with an amplitude of 6 microns. Sonication is undertaken in a 100 millilitre glass beaker, diameter 38 mm, with magnetic flea agitator and cooled in a water/ice bath to maintain temperature at 28-32° C. Bacterial growth in each sample is assessed at 5 minute intervals by streaking each dispersion on to Nutrient Agar(NA) plates and incubating the plates for a minimum of 48 hours at 30° C. The plates are then examined for bacterial colonies and expressed according to the following notation:
A mixture of Pigment Red 23,215.5 parts, Emulan OG (RTM) (35% solution in water), 153.7 parts, tributyl phosphate, 2 parts, and water, 128.8 parts are dispersed by re-circulation through a Bachofen KDL200 bead-mill until colouristic properties are within specification of UNISPERSE (RTM) Red RBS-PI as detailed in Example 1 and adjusted to pH 8.0-8.5 with 20% sodium hydroxide solution. This material is identified as having a bacterial count of 4.8×10^6 colony-forming units (cfu) per millilitre comprised of a mixture of Gram positive and Gram negative bacteria. It is treated with 250 parts per million(ppm) of pentane 1,5-dialdehyde and pumped through a 2406 Nearfield Accoustical Processor sonicating at 16 kHz and 20 kHz respectively with a plate separation of 6 mm (approximately) at a flow rate of 750 kg/hr. Assessment bacterial activity is then done by spreading a sample of the pigment dispersion on Nutrient Agar(NA) plates and incubating at 30° C. for 48 hours. […] The temperature rise is 1° C. per pass, from a starting value of 20° C.
The solids dispersion as defined in Example 2, containing the mixture of Gram positive and Gram negative bacteria, is treated separately with 200 ppm and 500 ppm of pentane-1,5-dialdeyde (Ucarcide 250 (RTM)), and with 200 ppm and 500 ppm of CIT/MIT mixture (Acticide LG (RTM)) and each sonicated for a period of 30 minutes according to the process defined in Example 1. Each sample is then checked for bacterial contamination over following 28 days.

Structure (SMILES): O=CCCCC=O [glutaraldehyde, pentane-1,5-dialdehyde]
- bacterial contamination (Ucarcide 250 200 ppm, 1 days after sonication): −
- bacterial contamination (Ucarcide 250 200 ppm, 2 days after sonication): −
- bacterial contamination (Ucarcide 250 200 ppm, 7 days after sonication): −
- bacterial contamination (Ucarcide 250 200 ppm, 14 days after sonication): −
- bacterial contamination (Ucarcide 250 200 ppm, 28 days after sonication): −
- bacterial contamination (Ucarcide 250 200 ppm, sonicated 0 mins.): +++ (heavy contamination(>10^5 cfu/ml))
- bacterial contamination (Ucarcide 250 200 ppm, sonicated 5 mins.): ++ (moderate contamination(10^3-10^5 cfu/ml))
- bacterial contamination (Ucarcide 250 200 ppm, sonicated 10 mins.): −
- bacterial contamination (Ucarcide 250 200 ppm, sonicated 15 mins.): −
- bacterial contamination (Ucarcide 250 200 ppm, sonicated 20 mins.): −
- bacterial contamination (Ucarcide 250 200 ppm, sonicated 25 mins.): −
- bacterial contamination (Ucarcide 250 200 ppm, sonicated 30 mins.): −
- bacterial contamination (Ucarcide 250 500 ppm, 1 days after sonication): −
- bacterial contamination (Ucarcide 250 500 ppm, 2 days after sonication): −
- bacterial contamination (Ucarcide 250 500 ppm, 7 days after sonication): −
- bacterial contamination (Ucarcide 250 500 ppm, 14 days after sonication): −
- bacterial contamination (Ucarcide 250 500 ppm, 28 days after sonication): −
- bacterial contamination (Ucarcide 250 500 ppm, sonicated 0 mins.): +++ (heavy contamination(>10^5 cfu/ml))
- bacterial contamination (Ucarcide 250 500 ppm, sonicated 5 mins.): −
- bacterial contamination (Ucarcide 250 500 ppm, sonicated 10 mins.): −
- bacterial contamination (Ucarcide 250 500 ppm, sonicated 15 mins.): −
- bacterial contamination (Ucarcide 250 500 ppm, sonicated 20 mins.): −
- bacterial contamination (Ucarcide 250 500 ppm, sonicated 25 mins.): −
- bacterial contamination (Ucarcide 250 500 ppm, sonicated 30 mins.): −
